Results taken from ChEMBL document CHEMBL1201862, “PubChem BioAssay data set” (2004).
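How tested: cells in 96-well plates exposed to compound for 48 hours at five concentrations. Here, GI50 denotes the concentration required for 50% inhibition of growth.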 Activity calls are given as the source filed them. Cut-off read from the data, not from the text of the source: active = GI50 up to about 1.1 µM and inactive = higher.

What was measured:
Assay in all cases: growth of human tumour cells (NCI), 48 h
MDA-N = test system: MDA-N
SK-OV-3 = test system: SK-OV-3
MOLT-4 = test system: MOLT-4
SK-MEL-5 = test system: SK-MEL-5
A549 = test system: A549
SNB-19 = test system: SNB-19
HOP-62 = test system: HOP-62
HT-29 = test system: HT-29
SN12C = test system: SN12C
UACC-62 = test system: UACC-62
SF-295 = test system: SF-295
HCT-15 = test system: HCT-15
SR = test system: SR
TK-10 = test system: TK-10
SK-MEL-28 = test system: SK-MEL-28
DU-145 = test system: DU-145
NCI-H460 = test system: NCI-H460
OVCAR-4 = test system: OVCAR-4
HOP-92 = test system: HOP-92
A498 = test system: A498

SMILES | GI50 (MDA-N) | GI50 (SK-OV-3) | GI50 (MOLT-4) | GI50 (SK-MEL-5) | GI50 (A549) | GI50 (SNB-19) | GI50 (HOP-62) | GI50 (HT-29) | GI50 (SN12C) | GI50 (UACC-62) | GI50 (SF-295) | GI50 (HCT-15) | GI50 (SR) | GI50 (TK-10) | GI50 (SK-MEL-28) | GI50 (DU-145) | GI50 (NCI-H460) | GI50 (OVCAR-4) | GI50 (HOP-92) | GI50 (A498)
CN1CN(c2ccccc2)C2(CCN(Cc3csc4ccccc34)CC2)C1=O | 15.2 µM (inactive) | 38.2 µM (inactive) | 4.32 µM (inactive) | 7.78 µM (inactive) | 18.6 µM (inactive) | 38.4 µM (inactive) | 19.6 µM (inactive) | 4.83 µM (inactive) | 13.5 µM (inactive) | 22.8 µM (inactive) | 11.8 µM (inactive) | 14.5 µM | 4.45 µM (inactive) | 12.9 µM (inactive) | 22.1 µM (inactive) | 49.2 µM (inactive) | – | – | – | –
COc1ccc(-n2sc3ncc(C)cc3c2=O)cc1 | 16.5 µM (inactive) | 39.8 µM (inactive) | 29.3 µM (inactive) | 13.2 µM (inactive) | 20.7 µM (inactive) | > 100 µM (inactive) | 18.2 µM (inactive) | 17.4 µM (inactive) | 16.1 µM (inactive) | 17.5 µM (inactive) | 50.1 µM (inactive) | 18.4 µM | 35.4 µM (inactive) | 19.1 µM (inactive) | 24.2 µM (inactive) | 21.7 µM (inactive) | 86.3 µM (inactive) | 33.4 µM (inactive) | 19.9 µM (inactive) | –
O=C(c1ccsc1)c1nccc2c1cnc1ccccc12 | > 100 µM (inactive) | 54.8 µM (inactive) | 4.44 µM (inactive) | 36.2 µM (inactive) | > 100 µM (inactive) | 53.5 µM (inactive) | 25.5 µM (inactive) | > 100 µM (inactive) | > 100 µM (inactive) | 65.6 µM (inactive) | 45.5 µM (inactive) | > 100 µM | – | 42.6 µM (inactive) | > 100 µM (inactive) | > 100 µM (inactive) | 89.9 µM (inactive) | 94.8 µM (inactive) | 22.5 µM (inactive) | 75 µM (inactive)
Cc1ccccc1Nc1nc(NNC(=O)Cc2ccccc2)nc(NNC(=O)c2ccncc2)n1 | > 10 µM (inactive) | > 10 µM (inactive) | > 10 µM (inactive) | – | – | – | > 10 µM (inactive) | > 10 µM (inactive) | > 10 µM (inactive) | > 10 µM (inactive) | – | > 10 µM | > 10 µM (inactive) | > 10 µM (inactive) | > 10 µM (inactive) | > 10 µM (inactive) | > 10 µM (inactive) | > 10 µM (inactive) | > 10 µM (inactive) | –
O=C(c1cccc2ccccc12)C1(Br)S(=O)(=O)OCCOS1(=O)=O | > 100 µM (inactive) | – | > 100 µM (inactive) | > 100 µM (inactive) | > 100 µM (inactive) | > 100 µM (inactive) | > 100 µM (inactive) | > 100 µM (inactive) | > 100 µM (inactive) | – | > 100 µM (inactive) | > 100 µM | > 100 µM (inactive) | > 100 µM (inactive) | > 100 µM (inactive) | > 100 µM (inactive) | > 100 µM (inactive) | > 100 µM (inactive) | > 10 µM (inactive) | –
Cc1cc(=O)oc2cc(OCC(O)COC(C)C)ccc12 (centres undefined) | 91.4 µM (inactive) | > 100 µM (inactive) | > 100 µM (inactive) | > 100 µM (inactive) | > 100 µM (inactive) | > 100 µM (inactive) | > 100 µM (inactive) | > 100 µM (inactive) | > 100 µM (inactive) | > 100 µM (inactive) | > 100 µM (inactive) | > 100 µM | > 100 µM (inactive) | > 100 µM (inactive) | > 100 µM (inactive) | > 100 µM (inactive) | > 100 µM (inactive) | 59.2 µM (inactive) | 80.9 µM (inactive) | –
CC(=O)c1cccc(Nc2nc3ccccc3c3[nH]c4ccccc4c23)c1 | 4.73 µM (inactive) | 5.42 µM (inactive) | – | – | 2.78 µM (inactive) | 16.2 µM (inactive) | 7.31 µM (inactive) | 4.02 µM (inactive) | 3.49 µM (inactive) | 1.94 µM (inactive) | 3.53 µM (inactive) | 3.94 µM | – | 7.55 µM (inactive) | – | 4.93 µM (inactive) | 1.7 µM (inactive) | – | 2.87 µM (inactive) | –
COc1ccc(-c2cc(-c3cc(C)cc(Br)c3O)no2)cc1 | 23.6 µM (inactive) | 6.3 µM (inactive) | 13.5 µM (inactive) | 7 µM (inactive) | 13.3 µM (inactive) | 10.5 µM (inactive) | 8.67 µM (inactive) | 31.6 µM (inactive) | 7.59 µM (inactive) | 6.47 µM (inactive) | 3.45 µM (inactive) | 24.1 µM | 67.5 µM (inactive) | 19.8 µM (inactive) | 18.7 µM (inactive) | 16.6 µM (inactive) | 5.58 µM (inactive) | 3.37 µM (inactive) | – | 3.03 µM (inactive)
CC(=O)OC1CCN(C(=O)c2ccccc2)CC1CC1(c2cc3ccccc3[nH]2)OCCO1 (centres undefined) | 39.2 µM (inactive) | > 100 µM (inactive) | 32.2 µM (inactive) | 44 µM (inactive) | 50.1 µM (inactive) | > 100 µM (inactive) | > 100 µM (inactive) | > 100 µM (inactive) | 84.3 µM (inactive) | 36.6 µM (inactive) | 68.5 µM (inactive) | 48.3 µM | – | 53.2 µM (inactive) | > 100 µM (inactive) | > 100 µM (inactive) | – | 77.3 µM (inactive) | 48.9 µM (inactive) | 26.7 µM (inactive)
CSc1cc(Cl)c(C)cc1S(=O)(=O)NC(=O)NNc1ccc(C)cc1 | > 100 µM (inactive) | 68.9 µM (inactive) | 43 µM (inactive) | > 100 µM (inactive) | > 100 µM (inactive) | > 100 µM (inactive) | > 100 µM (inactive) | > 100 µM (inactive) | > 100 µM (inactive) | – | > 100 µM (inactive) | > 100 µM | 40.2 µM (inactive) | – | > 100 µM (inactive) | 48.9 µM (inactive) | > 100 µM (inactive) | > 100 µM (inactive) | – | > 100 µM (inactive)
COC(=O)Nc1nc2cc(C(=O)c3ccc[nH]3)ccc2[nH]1 | 0.134 µM (active) | 2.03 µM (inactive) | 0.575 µM (active) | 0.282 µM (active) | – | 1.19 µM (inactive) | 1.44 µM (inactive) | 0.415 µM (active) | 1.15 µM (inactive) | 0.425 µM (active) | 0.759 µM (active) | 0.319 µM | – | 1.67 µM (inactive) | 0.711 µM (active) | 1.82 µM (inactive) | 0.596 µM (active) | > 100 µM (inactive) | – | 3.04 µM (inactive)
SC1=NC2=C(CSC/C2=C\c2cccc(Br)c2)C(c2cccc(Br)c2)N1 (centres undefined) | 68.2 µM (inactive) | > 100 µM (inactive) | 38.7 µM (inactive) | 30.3 µM (inactive) | > 100 µM (inactive) | > 100 µM (inactive) | > 100 µM (inactive) | 42.3 µM (inactive) | > 100 µM (inactive) | > 100 µM (inactive) | > 100 µM (inactive) | > 100 µM | – | > 100 µM (inactive) | > 100 µM (inactive) | > 100 µM (inactive) | 55.6 µM (inactive) | 93.5 µM (inactive) | – | > 100 µM (inactive)
O=C(SC1=NCCN1)c1cccc2ccccc12 | 76 µM (inactive) | 44.5 µM (inactive) | 16.9 µM (inactive) | 66.5 µM (inactive) | > 100 µM (inactive) | > 100 µM (inactive) | 55 µM (inactive) | 38.6 µM (inactive) | 64.6 µM (inactive) | > 100 µM (inactive) | 36.8 µM (inactive) | 48.6 µM | – | > 100 µM (inactive) | 96.2 µM (inactive) | 67.5 µM (inactive) | 62.5 µM (inactive) | 59.8 µM (inactive) | 42.1 µM (inactive) | > 100 µM (inactive)
CC(=O)NNc1nc(C)c(C(/C=C/c2cccc([N+](=O)[O-])c2)=N/NC(=S)NN)s1 | > 100 µM (inactive) | > 100 µM (inactive) | > 100 µM (inactive) | > 100 µM (inactive) | > 100 µM (inactive) | > 100 µM (inactive) | 91 µM (inactive) | > 100 µM (inactive) | > 100 µM (inactive) | > 100 µM (inactive) | > 100 µM (inactive) | > 100 µM | – | > 100 µM (inactive) | > 100 µM (inactive) | > 100 µM (inactive) | > 100 µM (inactive) | > 100 µM (inactive) | > 100 µM (inactive) | > 100 µM (inactive)
CC/C=C/C(CC)C/C(C)=C\[C@]1(CC)C[C@H](CC)[C@H](CC(=O)O)OO1 (some centres undefined) | 1.36 µM (inactive) | 1.9 µM (inactive) | 0.151 µM (active) | 1.27 µM (inactive) | 0.121 µM (active) | 1.82 µM (inactive) | 0.885 µM (active) | 0.499 µM (active) | 1.59 µM (inactive) | 1.66 µM (inactive) | 0.324 µM (active) | 0.416 µM | 0.114 µM (active) | – | – | 0.451 µM (active) | 0.171 µM (active) | – | – | 1.53 µM (inactive)
Cc1nc2c(cc1C(=O)N/N=C/c1ccc([N+](=O)[O-])cc1)c(=O)n(C)c(=O)n2C | > 100 µM (inactive) | 39.4 µM (inactive) | > 100 µM (inactive) | > 100 µM (inactive) | > 100 µM (inactive) | 21.4 µM (inactive) | 16.5 µM (inactive) | > 100 µM (inactive) | > 100 µM (inactive) | > 100 µM (inactive) | 54.1 µM (inactive) | > 100 µM | – | 54.3 µM (inactive) | > 100 µM (inactive) | 94.6 µM (inactive) | > 100 µM (inactive) | > 100 µM (inactive) | – | –
